Experiments:
578 cancer cells lines = settings: of 578 cancer cells lines tested; Corsello et al. Nature Cancer 2020; cited from earlier work
FIG. 5 (CON'T) [1] = assay: FIG. 5 (CON'T)
Protocol: (§1) Table printed on a drawing sheet, FIG. 5 (CON'T)
(§2) The patent's description of the figure: FIG. 5 is a table summarizing the results of Examples 42-44 for various compounds described herein. NT indicates “not tested.” For EC50 values, “A” represents an EC50 less than or equal to 5.0 μM, “B” represents an EC50 from 5.1 μM to 10.0 μM, “C” represents an EC50 from 10.1 μM to 50.0 μM, and “D” represents an EC50 greater than 50.0 μM.
First reader's note: Continued from the sheet before: the first body row is the end of a record begun there; EC50 is given as classes A-D whose legend is not printed on this sheet.

FIG. 5 (CON’T) [2] = assay: FIG. 5 (CON’T)
Protocol: (§3) Table printed on a drawing sheet, FIG. 5 (CON’T)
as §2

FIG. 5 (CON’T) [3] = assay: FIG. 5 (CON’T); remark: listed apart in the source
Protocol: as §3, §2
First reader's note: Continued from an earlier sheet of FIG. 5; the EC50 classes A-D and NT are not explained on this sheet but only in the patent's figure description.

FIG. 5 (CON'T) [4] = assay: FIG. 5 (CON'T); remark: listed apart in the source
Protocol: as §1, §2
First reader's note: Continued from an earlier sheet of FIG. 5; EC50 is given as classes A-C, and neither these classes nor NT are explained on this sheet.

Q: For `C=C(NC(=O)C(=C)NC(=O)c1csc(C2=N[C@@H]3c4csc(n4)[C@H]4NC(=O)c5csc(n5)[C@H]([C@](C)(O)[C@@H](C)O)NC(=O)[C@H]5CSC(=N5)/C(=C/C)NC(=O)[C@H]([C@@H](C)O)NC(=O)c5csc(n5)[C@]3(CC2)NC(=O)[C@H](C)NC(=O)C(=C)NC(=O)[C@H](C)NC(=O)[C@H]([C@@H](C)CC)N[C@@H]2C=Cc3c([C@H](C)O)cc(nc3[C@H]2O)C(=O)O[C@@H]4C)n1)C(N)=O` [Thiostrepton, thiostrepton], which “number of tumor cells lines in which meaningful efficacy was shown” value (578 cancer cells lines) is on record?
A: The value was 403.

Q: Which “Time into solution from powder?” value (FIG. 5 (CON'T) [1]) does the source give for `C=C(NC(=O)c1csc(N2C[C@@H](C)N(C(=O)OC(C)(C)C)[C@@H](C)C2)n1)C(=O)NC(=C)C(=O)OC` [compound 56] here?
A: The value was 1 to 2 min.

Q: For `C=C(NC(=O)c1csc(N2CCC(C(=O)NCCCOC)CC2)n1)C(=O)NC(=C)C(=O)OC` [compound 61], which “Time into solution from powder?” value (FIG. 5 (CON’T) [2]) is on record?
A: The value was 1 to 2 min.

Q: For `C=C(NC(=O)c1csc(N2CCN(CCCOC)C(=O)C2)n1)C(=O)NC(=C)C(=O)OC` [compound 63], which “Time into solution from powder?” value (FIG. 5 (CON’T) [3]) is on record?
A: Its value is 1 to 2 min.

Q: Which “Time into solution from powder?” value (FIG. 5 (CON'T) [4]) does the source give for `C=C(NC(=O)c1ccc(-c2ccc(NC(=O)OC(C)(C)C)cc2)cc1)C(=O)NC(=C)C(=O)OC` [compound 69] here?
A: The value was 1 to 2 min.
